Patent US10246429B2, “Vinyl fluoride cyclopropyl fused thiazin-2-amine compounds as beta-secretase inhibitors and methods of use” (AMGEN INC., priority 2015, dated 2019)
pIC50: −log10 of the molar value.

Key:
BACE1 [1] = molecular target: T1, BACE1 (Homo sapiens (Human), UniProt P56817); test: In vitro enzymatic BACE1 FRET assay; format: biochemical; settings: read-out: IC50 IP (μM) BACE1 Enzyme
Target sequence in this assay (P56817 46-501): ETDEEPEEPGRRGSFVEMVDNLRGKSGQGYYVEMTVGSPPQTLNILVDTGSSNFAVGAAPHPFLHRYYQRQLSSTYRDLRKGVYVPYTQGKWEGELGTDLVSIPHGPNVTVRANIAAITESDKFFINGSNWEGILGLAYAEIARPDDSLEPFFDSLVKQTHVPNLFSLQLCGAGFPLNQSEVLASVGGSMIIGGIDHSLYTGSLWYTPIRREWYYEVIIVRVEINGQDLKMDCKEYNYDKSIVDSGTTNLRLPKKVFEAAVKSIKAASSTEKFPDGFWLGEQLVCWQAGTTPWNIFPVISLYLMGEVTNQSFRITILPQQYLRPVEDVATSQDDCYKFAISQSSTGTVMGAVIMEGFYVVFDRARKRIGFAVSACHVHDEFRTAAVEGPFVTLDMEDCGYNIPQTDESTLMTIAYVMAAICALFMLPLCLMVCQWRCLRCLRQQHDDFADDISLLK
Description: (§1) In Vitro Enzymatic BACE1 and BACE2 FRET (Fluorescence Resonance Energy Transfer) Assays (Enzyme Assay Data in Table 1)

BACE1 [2] = molecular target: T1, BACE1; test: BACE1 cell assay; format: cell-based; settings: for IC50: read-out: IC50 IP (μM) BACE1 Cell
Target sequence in this assay (P56817 46-501, species assumed): as the sequence (P56817 46-501) above

BACE2 = BACE2 (Homo sapiens (Human), UniProt Q9Y5Z0); test: In vitro enzymatic BACE2 FRET assay; format: biochemical; settings: read-out: IC50 IP (μM) BACE2 Enzyme
Sequence of BACE2 (Q9Y5Z0 63-518): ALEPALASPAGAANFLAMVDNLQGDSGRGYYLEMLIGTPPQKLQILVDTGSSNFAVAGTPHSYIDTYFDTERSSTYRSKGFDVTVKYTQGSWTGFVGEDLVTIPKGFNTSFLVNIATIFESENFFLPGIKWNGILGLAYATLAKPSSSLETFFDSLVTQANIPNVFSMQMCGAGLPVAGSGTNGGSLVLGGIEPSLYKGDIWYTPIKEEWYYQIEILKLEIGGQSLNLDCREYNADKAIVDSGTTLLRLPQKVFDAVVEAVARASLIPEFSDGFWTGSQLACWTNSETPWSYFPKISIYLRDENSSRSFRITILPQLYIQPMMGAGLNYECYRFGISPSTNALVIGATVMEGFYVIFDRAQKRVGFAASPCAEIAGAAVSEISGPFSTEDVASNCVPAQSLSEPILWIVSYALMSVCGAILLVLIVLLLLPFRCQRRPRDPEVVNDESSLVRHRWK
Description: as §1

Cathepsin D (CatD) = Cathepsin D (CatD) (Homo sapiens (Human), UniProt P07339); test: CatD assay; format: biochemical; settings: read-out: IC50 IP (μM) CatD
Sequence of Cathepsin D (CatD) (P07339 65-412, species assumed): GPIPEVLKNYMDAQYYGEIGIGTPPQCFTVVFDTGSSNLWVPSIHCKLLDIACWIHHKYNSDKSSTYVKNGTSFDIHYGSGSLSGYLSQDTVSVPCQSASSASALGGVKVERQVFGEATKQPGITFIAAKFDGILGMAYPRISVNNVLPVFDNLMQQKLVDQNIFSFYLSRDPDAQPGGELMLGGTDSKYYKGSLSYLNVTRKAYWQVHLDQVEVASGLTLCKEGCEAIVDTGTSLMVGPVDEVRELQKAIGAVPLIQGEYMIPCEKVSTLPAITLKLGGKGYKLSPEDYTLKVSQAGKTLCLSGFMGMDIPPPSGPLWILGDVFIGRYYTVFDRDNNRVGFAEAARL

SMILES | IC50 (BACE1 [1]) [µM] | IC50 (BACE1 [2]) [µM] | IC50 (BACE2) [µM] | IC50 (Cathepsin D (CatD)) [µM] | pIC50 (BACE1 [2])
CN(C)C(=O)[C@]12C[C@H]1[C@@](C)(c1cc(/C=C(\F)c3ccc(C#N)s3)ccc1F)N=C(N)S2 [Example 220, (1S,5S,6S)-3-amino-5-(5-((Z)-2-(5-cyanothiophen-2-yl)-2-fluorovinyl)-2-fluorophenyl)-N,N,5-trimethyl-2-thia-4-azabicyclo[4.1.0]hept-3-ene-1-carboxamide] | 0.011 | 0.022 | 0.002 | 26.4 | –
C[C@H]1CN(C(=O)[C@]23C[C@H]2[C@@](C)(c2cc(/C=C(\F)c4ccc(C#N)cn4)ccc2F)N=C(N)S3)C[C@H](C)O1 [Example 323, 6-((Z)-2-(3-((1S,5S,6S)-3-amino-1-((2S,6S)-2,6-dimethylmorpholine-4-carbonyl)-5-methyl-2-thia-4-azabicyclo[4.1.0]hept-3-en-5-yl)-4-fluorophenyl)-1-fluorovinyl)nicotinonitrile] | 0.0031 | 0.0026 | 0.192 | 411 | –
COc1ccc(/C(F)=C/c2ccc(F)c([C@@]3(C)N=C(N)S[C@@]4(C(=O)N5CCCC5)C[C@H]43)c2)nc1 [Example 104, ((1S,5S,6S)-3-amino-5-(2-fluoro-5-((Z)-2-fluoro-2-(5-methoxypyridin-2-yl)vinyl)phenyl)-5-methyl-2-thia-4-azabicyclo[4.1.0]hept-3-en-1-yl)(pyrrolidin-1-yl)methanone] | 0.0226 | 0.0221 | 0.144 | 185 | –
C[C@]1(c2cc(/C=C(\F)c3ccc(C#N)cn3)ccc2F)N=C(N)S[C@@]2(C(=O)N3CCC4(CCO4)C3)C[C@H]21 (stereo partly drawn) [Example 327, 6-((Z)-2-(3-((1S,5S,6S)-3-amino-5-methyl-1-(1-oxa-6-azaspiro[3.4]octane-6-carbonyl)-2-thia-4-azabicyclo[4.1.0]hept-3-en-5-yl)-4-fluorophenyl)-1-fluorovinyl)nicotinonitrile] | 0.0008 | 0.0003 | 0.028 | 143 | –
COC[C@H]1COCCN1C(=O)[C@]12C[C@H]1[C@@](C)(c1cc(/C=C(\F)c3ccc(C#N)cn3)ccc1F)N=C(N)S2 [Example 328, 6-((Z)-2-(3-((1S,5S,6S)-3-amino-1-((S)-3-(methoxymethyl)morpholine-4-carbonyl)-5-methyl-2-thia-4-azabicyclo[4.1.0]hept-3-en-5-yl)-4-fluorophenyl)-1-fluorovinyl)nicotinonitrile] | 0.0023 | 0.0019 | 0.085 | 40.3 | –
COC[C@]12C[C@H]1[C@@](C)(c1cc(/C=C(\F)c3cnc(OCC(F)F)cn3)ccc1F)N=C(N)S2 [Example 266] | 0.591 | 1.51 | 1.58 | 409 | –
COC[C@]12C[C@H]1[C@@](C)(c1cc(/C=C(\F)c3cnc(OCC(C)C)cn3)ccc1F)N=C(N)S2 [Example 274] | 1.9 | 4.26 | 2.19 | 181 | –
C#Cc1ccc(/C(F)=C/c2ccc(F)c([C@@]3(C)N=C(N)S[C@@]4(C(=O)N5CCOCC5)C[C@H]43)c2)nc1 [Example 348, ((1S,5S,6S)-3-amino-5-(5-((Z)-2-(5-ethynylpyridin-2-yl)-2-fluorovinyl)-2-fluorophenyl)-5-methyl-2-thia-4-azabicyclo[4.1.0]hept-3-en-1-yl)(morpholino)methanone] | 0.007 | 0.008 | 0.097 | 162 | –
COC[C@]12C[C@H]1[C@@](CF)(c1cc(/C=C(\F)c3ccc(Cl)cn3)ccc1F)N=C(N)S2 [Example 100, (1S,5S,6S)-5-(5-((Z)-2-(5-chloropyridin-2-yl)-2-fluorovinyl)-2-fluorophenyl)-5-(fluoromethyl)-1-(methoxymethyl)-2-thia-4-azabicyclo[4.1.0]hept-3-en-3-amine] | 0.0228 | 0.26 | 0.0421 | 933 | –
C#CCOc1cnc(/C(F)=C/c2ccc(F)c([C@@]3(C)N=C(N)S[C@@]4(C(C)=O)C[C@H]43)c2)cn1 [Example 234, 1-((1S,5S,6S)-3-amino-5-(2-fluoro-5-((Z)-2-fluoro-2-(5-(prop-2-yn-1-yloxy)pyrazin-2-yl)vinyl)phenyl)-5-methyl-2-thia-4-azabicyclo[4.1.0]hept-3-en-1-yl)ethanone] | 0.0059 | – | 0.581 | 125 | 7.95
COC[C@]12C[C@H]1[C@@](C)(c1cc(/C=C(\F)c3cnc(OCCF)cn3)ccc1F)N=C(N)S2 [Example 269] | 0.839 | 1.66 | 1.14 | 329 | –
CNC(=O)[C@]12C[C@H]1[C@@](C)(c1cc(/C=C(\F)c3ncc(C#N)cc3C)ccc1F)N=C(N)S2 [Example 225, (1S,5S,6S)-3-amino-5-(5-((Z)-2-(5-cyano-3-methylpyridin-2-yl)-2-fluorovinyl)-2-fluorophenyl)-N,5-dimethyl-2-thia-4-azabicyclo[4.1.0]hept-3-ene-1-carboxamide] | 0.027 | – | 0.621 | 198 | 7.48
CCCC#Cc1ccc(/C(F)=C/c2ccc(F)c([C@@]3(C)N=C(N)S[C@@]4(C(=O)NC)C[C@H]43)c2)nc1 [Example 361, (1S,5S,6S)-3-amino-5-(2-fluoro-5-((Z)-2-fluoro-2-(5-(pent-1-yn-1-yl)pyridin-2-yl)vinyl)phenyl)-N,5-dimethyl-2-thia-4-azabicyclo[4.1.0]hept-3-ene-1-carboxamide] | 0.058 | 1.41 | 0.49 | 34 | –
CN(C)C(=O)[C@]12C[C@H]1[C@@](C)(c1cc(/C(F)=C/c3ccc(C#N)cc3)ccc1F)N=C(N)S2 [Example 221, (1S,5S,6S)-3-amino-5-(5-((Z)-2-(4-cyanophenyl)-1-fluorovinyl)-2-fluorophenyl)-N,N,5-trimethyl-2-thia-4-azabicyclo[4.1.0]hept-3-ene-1-carboxamide] | 0.128 | – | 0.302 | 48.6 | 6.24
CNC(=O)[C@]12C[C@H]1[C@@](C)(c1cc(/C=C(/F)c3ccc(Br)cn3)ccc1F)N=C(N)S2 [Example 356, (1S,5S,6S)-3-amino-5-(5-((E)-2-(5-bromopyridin-2-yl)-2-fluorovinyl)-2-fluorophenyl)-N,5-dimethyl-2-thia-4-azabicyclo[4.1.0]hept-3-ene-1-carboxamide] | 0.023 | 0.154 | 0.137 | 64 | –
COC[C@]12C[C@H]1[C@@](C)(c1cc(/C=C(\F)c3cnc(OCC(F)(F)F)cn3)ccc1F)N=C(N)S2 [Example 267] | 0.112 | 0.559 | 1.73 | 209 | –
Cc1nnc(COc2cnc(/C(F)=C/c3ccc(F)c([C@@]4(C)N=C(N)S[C@@]5(C(=O)N(C)C)C[C@H]54)c3)cn2)o1 [Example 216, (1S,5S,6S)-3-amino-5-(2-fluoro-5-((Z)-2-fluoro-2-(5-((5-methyl-1,3,4-oxadiazol-2-yl)methoxy)pyrazin-2-yl)vinyl)phenyl)-N,N,5-trimethyl-2-thia-4-azabicyclo[4.1.0]hept-3-ene-1-carboxamide] | 0.007 | 0.005 | 0.072 | 391 | –
